Experimental data: patent publication US5491155A, “Substituted thiadiazoles, compositions containing them and their use as antimicrobial and marine antifouling agents” (The Dow Chemical Company, priority 1994, dated 1996)
In brackets after ≈: the same amount, converted by molar mass. Read-outs that look alike come from different tables or passages of the source.

Columns and labels:
Salmonella choleraesuis = assay: MIC in nutrient agar, Salmonella choleraesuis; format: cell-based, Salmonella choleraesuis (ATCC 10708); settings: Salmonella enterica, Sc, 48 hours, read-out: Minimum Inhibitory Concentration (MIC)
Method: (§1) The minimum inhibitory concentration (MIC) for the compounds listed in Table I is determined for bacteria, using nutrient agar, and 7 yeast and fungi, using malt yeast agar. A one percent solution of the test compound is prepared in a mixture of acetone and water.
(§2) Nutrient agar is prepared at pH 6.8, representing a neutral medium, and at pH 8.2, representing an alkaline medium. The nutrient agars are prepared by adding 23 g of nutrient agar to one-liter of deionized water. In addition, the alkaline medium is prepared by adjusting a 0.04M solution of N-(tris-(hydroxymethyl)methyl)glycine buffered deionized water with concentrated sodium hydroxide to a pH of 8.5.
(§3) The test tubes containing the agar are cooled in a water bath until the temperature of the agar is 48° C. Then, an appropriate amount of the one percent solution of the test compound is added (except in the controls where no compound is added) to the respective test tubes so that the final concentrations are 500, 250, 100, 50, 25, 10, 2.5, 1.0 and zero parts per million of the test compound in the agar, thus having a known concentration of test compound dispersed therein. The contents of the test tubes are then transferred to respective petri plates. After drying for 24 hours, the petri plates containing nutrient agar are inoculated with bacteria and those containing malt yeast agar are inoculated with yeast and fungi.
(§4) The inoculation with bacteria is accomplished by using the following procedure. Twenty-four hour-cultures of each of the bacteria are prepared by incubating the respective bacteria in tubes containing nutrient broth for 24 hours at 30° C. in a shaker. Dilutions of each of the 24 hour-cultures are made so that nine separate suspensions (one for each of the nine test bacteria) are made, each containing 10^8 colony forming units (CFU) per mL of suspension of a particular bacteria. Aliquots of 0.3 mL of each of the bacterial suspensions are used to fill the individual wells of Steer's Replicator. For each microbial suspension, 0.3 mL was used to fill three wells (i.e., three wells of 0.3 mL each) so that for the nine different bacteria, 27 wells are filled. The Steer's Replicator is then used to inoculate both the neutral and alkaline pH nutrient agar petri plates.
(§5) The inoculated petri plates are incubated at 30° C. for 48 hours and then read to determine if the test compound which is incorporated into the agar prevented growth of the respective bacteria.
(§6) Table II lists the bacteria, yeast and fungi used in the MIC test described above along with their respective American Type Culture Collection (ATCC) identification numbers.
(§7) In Tables III and IV, the MIC values of the compounds described in Table I as compared to the MIC of a standard commercial preservative (with 1-(3-chloroalkyl)-3,5,7-triaza-1-azoniaadamantane chloride as the active agent and referred to in Tables III and IV as "STANDARD I") are set forth for the bacteria organisms and yeast/fungi organisms which are listed in Table II.

Saccharomyces cerevisiae = assay: MIC in malt yeast agar, Saccharomyces cerevisiae; format: cell-based, Saccharomyces cerevisiae (ATCC 4105); settings: Sc, malt yeast agar, 30° C., 48 hours for yeast, read-out: Minimum Inhibitory Concentration (MIC)
Method: as §1
(§8) Malt yeast agar is prepared by adding 3 g yeast extract and 45 g malt agar per liter of deionized water. The specific agar is dispensed in 30 mL aliquots into 25×200 mm test tubes, capped and autoclaved for 15 minutes at 115° C.
as §3
(§9) The inoculation with the yeast and fungi is accomplished as follows. Cultures of yeast and fungi are incubated for seven days on malt yeast agar at 30° C. These cultures are used to prepare suspensions by the following procedure. A suspension of each organism is prepared by adding 10 mL of sterile saline and 10 microliters of octylphenoxy polyethoxy ethanol to the agar slant of yeast or fungi. The sterile saline/octylphenoxy polyethoxy ethanol solution is then agitated with a sterile swab to suspend the microorganism grown on the slant. Each resulting suspension is diluted into sterile saline (1 part suspension: 9 parts sterile saline). Aliquots of these dilutions are placed in individual wells of Steer's Replicator and petri plates inoculated as previously described. The petri plates are incubated at 30° C. and read after 48 hours for yeast and 72 hours for fungi.
as §6, §7

Escherichia coli = assay: MIC in nutrient agar, Escherichia coli; format: cell-based, Escherichia coli (ATCC 11229); settings: Ec, 48 hours, read-out: Minimum Inhibitory Concentration (MIC)
Method: as §1, §2, §3, §4, §5, §6, §7

Fusarium oxysporum = assay: MIC in malt yeast agar, Fusarium oxysporum; format: cell-based, Fusarium oxysporum (ATCC 48112); settings: Fo; malt yeast agar; 30° C.; 72 hours for fungi; read-out: Minimum Inhibitory Concentration (MIC)
Method: as §1, §8, §3, §9, §6, §7

Enterobacter aerogenes = assay: MIC in nutrient agar, Enterobacter aerogenes; format: cell-based, Enterobacter aerogenes (ATCC 13048); settings: Klebsiella aerogenes, Ea, 30° C., 48 hours, read-out: Minimum Inhibitory Concentration (MIC)
Method: as §1, §2, §3, §4, §5, §6, §7

Klebsiella pneumonias = assay: MIC in nutrient agar, Klebsiella pneumonias; format: cell-based, Klebsiella pneumonias (ATCC 8308); settings: Kp, 48 hours, read-out: Minimum Inhibitory Concentration (MIC)
Method: as §1, §2, §3, §4, §5, §6, §7

Proteus vulgaris = assay: MIC in nutrient agar, Proteus vulgaris; format: cell-based, Proteus vulgaris (ATCC 881); settings: Pv, 48 hours, read-out: Minimum Inhibitory Concentration (MIC)
Method: as §1, §2, §3, §4, §5, §6, §7

Aspergillus niger = assay: MIC in malt yeast agar, Aspergillus niger; format: cell-based, Aspergillus niger (ATCC 16404); settings: An; malt yeast agar; 30° C.; 72 hours for fungi; read-out: Minimum Inhibitory Concentration (MIC)
Method: as §1, §8, §3, §9, §6, §7

[1] = tested on: Pseudomonas aeruginosa (PRD-10); assay: MIC in nutrient agar, Pseudomonas aeruginosa (PRD-10); format: cell-based, Pseudomonas aeruginosa (ATCC 15442); settings: PRD, 48 hours, read-out: Minimum Inhibitory Concentration (MIC)
Method: as §1, §2, §3, §4, §5, §6, §7

Pseudomonas aeruginosa = assay: MIC in nutrient agar, Pseudomonas aeruginosa (Pa); format: cell-based, Pseudomonas aeruginosa (ATCC 10145); settings: Pa, 48 hours, read-out: Minimum Inhibitory Concentration (MIC)
Method: as §1, §2, §3, §4, §5, §6, §7

Bacillus subtilis = assay: MIC in nutrient agar, Bacillus subtilis; format: cell-based, Bacillus subtilis (ATCC 8473); settings: Bs, 48 hours, read-out: Minimum Inhibitory Concentration (MIC)
Method: as §1, §2, §3, §4, §5, §6, §7

Aureobasidium pullulan = assay: MIC in malt yeast agar, Aureobasidium pullulan; format: cell-based, Aureobasidium pullulan (ATCC 16622); settings: Ap; malt yeast agar; 30° C.; 72 hours for fungi; read-out: Minimum Inhibitory Concentration (MIC)
Method: as §1, §8, §3, §9, §6, §7

Candida albicans = assay: MIC in malt yeast agar, Candida albicans; format: cell-based, Candida albicans (ATCC 10231); settings: Ca; malt yeast agar; 30° C.; 48 hours for yeast; read-out: Minimum Inhibitory Concentration (MIC)
Method: as §1, §8, §3, §9, §6, §7

Trichoderma viride = assay: MIC in malt yeast agar, Trichoderma viride; format: cell-based, Trichoderma viride (ATCC 8678); settings: Tv; malt yeast agar; 30° C.; 72 hours for fungi; read-out: Minimum Inhibitory Concentration (MIC)
Method: as §1, §8, §3, §9, §6, §7

Staphylococcus aureus = assay: MIC in nutrient agar, Staphylococcus aureus; format: cell-based, Staphylococcus aureus (ATCC 6538); settings: Sa, 48 hours, read-out: Minimum Inhibitory Concentration (MIC)
Method: as §1, §2, §3, §4, §5, §6, §7

Penicillium chrysogenum = assay: MIC in malt yeast agar, Penicillium chrysogenum; format: cell-based, Penicillium chrysogenum (ATCC 9480); settings: Pc; malt yeast agar; 30° C.; 72 hours for fungi; read-out: Minimum Inhibitory Concentration (MIC)
Method: as §1, §8, §3, §9, §6, §7

Row | MIC (Saccharomyces cerevisiae) [µg/mL] | MIC (Escherichia coli; pH 6.8, 30° C.) [µg/mL] | MIC (Escherichia coli; pH 8.2, 30° C.) [µg/mL] | MIC (Fusarium oxysporum) [µg/mL] | MIC (Enterobacter aerogenes; pH 6.8) [µg/mL] | MIC (Enterobacter aerogenes; pH 8.2) [µg/mL] | MIC (Klebsiella pneumonias; pH 6.8, 30° C.) [µg/mL] | MIC (Klebsiella pneumonias; pH 8.2, 30° C.) [µg/mL] | MIC (Proteus vulgaris; pH 6.8, 30° C.) [µg/mL] | MIC (Aspergillus niger) [µg/mL] | MIC ([1]; pH 6.8, 30° C.) [µg/mL] | MIC (Pseudomonas aeruginosa; pH 6.8, 30° C.) [µg/mL] | MIC (Bacillus subtilis; pH 6.8, 30° C.) [µg/mL] | MIC (Aureobasidium pullulan) [µg/mL] | MIC (Candida albicans) [µg/mL] | MIC (Trichoderma viride) [µg/mL] | MIC (Staphylococcus aureus; pH 6.8, 30° C.) [µg/mL] | MIC (Penicillium chrysogenum) [µg/mL] | Compound | MIC (Salmonella choleraesuis; pH 6.8, 30° C.) [µg/mL] | MIC (Salmonella choleraesuis; pH 8.2, 30° C.) [µg/mL] | further results
1 | < 10 | 25 (≈ 120 µM) | 25 (≈ 120 µM) | < 10 | 50 (≈ 241 µM) | 50 (≈ 241 µM) | 25 (≈ 120 µM) | 25 (≈ 120 µM) | < 10 | < 10 | 100 (≈ 482 µM) | 50 (≈ 241 µM) | < 10 | < 10 | < 10 | 25 (≈ 120 µM) | 25 (≈ 120 µM) | < 10 | N#CSCOc1nsnc1Cl [Example 6, 4-Chloro-3-thiocyanato-methyloxo-1,2,5-thiadiazole] | < 10 | 25 (≈ 120 µM) | MIC (Proteus vulgaris; pH 8.2, 30° C.): 25 µg/mL (≈ 120 µM); MIC ([1]; pH 8.2, 30° C.): 100 µg/mL (≈ 482 µM); MIC (Pseudomonas aeruginosa; pH 8.2, 30° C.): 50 µg/mL (≈ 241 µM); MIC (Bacillus subtilis; pH 8.2, 30° C.): 25 µg/mL (≈ 120 µM); MIC (Staphylococcus aureus; pH 8.2, 30° C.): 25 µg/mL (≈ 120 µM)
2 | < 10 | 25 (≈ 123 µM) | – | < 10 | 25 (≈ 123 µM) | – | < 10 | – | < 10 | < 10 | 25 (≈ 123 µM) | < 10 | < 10 | < 10 | 25 (≈ 123 µM) | 25 (≈ 123 µM) | < 10 | < 10 | COc1nsnc1OCSC#N [Example 7, 4-Methoxy-3-thiocyanato-methyloxo-1,2,5-thiadiazole] | 25 (≈ 123 µM) | – | –
3 | 25 (≈ 96 µM) | 50 (≈ 192 µM) | 100 (≈ 384 µM) | 25 (≈ 96 µM) | 250 (≈ 960 µM) | 250 (≈ 960 µM) | 100 (≈ 384 µM) | 50 (≈ 192 µM) | 25 (≈ 96 µM) | < 10 | 500 (≈ 1920 µM) | 250 (≈ 960 µM) | < 10 | < 10 | 50 (≈ 192 µM) | 50 (≈ 192 µM) | 25 (≈ 96 µM) | < 10 | N#CSCOc1nsnc1OCSC#N [Example 8, 3,4-Bis(thiocyanato-methyloxo)-1,2,5-thiadiazole] | 25 (≈ 96 µM) | 50 (≈ 192 µM) | MIC (Proteus vulgaris; pH 8.2, 30° C.): 25 µg/mL (≈ 96 µM); MIC ([1]; pH 8.2, 30° C.): 250 µg/mL (≈ 960 µM); MIC (Pseudomonas aeruginosa; pH 8.2, 30° C.): 100 µg/mL (≈ 384 µM); MIC (Bacillus subtilis; pH 8.2, 30° C.): 25 µg/mL (≈ 96 µM); MIC (Staphylococcus aureus; pH 8.2, 30° C.): 25 µg/mL (≈ 96 µM)
